Test results: ChEMBL document CHEMBL1201862, “PubChem BioAssay data set” (2004)
Each block holds one compound with its values, some of them ahead of it. Active and inactive are the calls of the source.

Tests used:
[1] = molecular target: Glucose-6-phosphate 1-dehydrogenase (Homo sapiens, UniProt P11413); experiment: inhibition of Homo sapiens G6PD, dose series – biochemical, fluorescence, selectivity assay for P. falciparum G6PD inhibitor project, dose response (AID 504792); type: functional
[2] = molecular target: T1, Mannose-6-phosphate isomerase (Homo sapiens, UniProt P34949); experiment: MPI inhibition at elevated mannose 6-phosphate – biochemical, fluorescence intensity, high mannose 6-phosphate, primary screen (AID 1220)
T1 sequence (P34949 whole entry): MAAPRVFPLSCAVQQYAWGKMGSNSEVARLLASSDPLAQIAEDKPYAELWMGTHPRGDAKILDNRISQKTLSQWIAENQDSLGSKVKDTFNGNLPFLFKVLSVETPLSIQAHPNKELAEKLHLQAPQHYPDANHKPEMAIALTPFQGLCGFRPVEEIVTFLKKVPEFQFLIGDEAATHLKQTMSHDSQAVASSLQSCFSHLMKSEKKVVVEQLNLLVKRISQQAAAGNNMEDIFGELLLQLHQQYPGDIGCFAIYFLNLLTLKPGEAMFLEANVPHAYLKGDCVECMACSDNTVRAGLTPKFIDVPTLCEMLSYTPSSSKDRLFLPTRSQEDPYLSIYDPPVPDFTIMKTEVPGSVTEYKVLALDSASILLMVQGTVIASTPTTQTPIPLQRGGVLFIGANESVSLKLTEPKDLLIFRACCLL

[3] = molecular target: Induced myeloid leukemia cell differentiation protein Mcl-1 (Homo sapiens, UniProt Q07820); experiment: blockers of MCL1 binding to BIM peptide – biochemical, fluorescence polarization, BIM-BH3 peptide, 1536-well, dose response (AID 2217)
Chain of Induced myeloid leukemia cell differentiation protein Mcl-1 (Q07820 whole entry): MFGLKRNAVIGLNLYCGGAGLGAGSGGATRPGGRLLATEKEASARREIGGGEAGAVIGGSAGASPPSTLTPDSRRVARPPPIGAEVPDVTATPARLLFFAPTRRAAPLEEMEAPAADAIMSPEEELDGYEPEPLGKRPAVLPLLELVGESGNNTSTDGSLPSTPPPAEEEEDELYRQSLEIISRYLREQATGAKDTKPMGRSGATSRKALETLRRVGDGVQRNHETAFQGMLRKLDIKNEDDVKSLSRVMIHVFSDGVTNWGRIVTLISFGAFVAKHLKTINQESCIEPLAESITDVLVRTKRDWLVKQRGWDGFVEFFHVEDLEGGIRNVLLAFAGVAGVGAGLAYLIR

Genome polyprotein = Genome polyprotein (dengue virus type 2, UniProt P29990); experiment: flavivirus cap methylation enzyme inhibition – biochemical, confirmation dose response, primary screen (AID 588689); type: functional
Chain of Genome polyprotein (P29990 2492-3391 limits assumed): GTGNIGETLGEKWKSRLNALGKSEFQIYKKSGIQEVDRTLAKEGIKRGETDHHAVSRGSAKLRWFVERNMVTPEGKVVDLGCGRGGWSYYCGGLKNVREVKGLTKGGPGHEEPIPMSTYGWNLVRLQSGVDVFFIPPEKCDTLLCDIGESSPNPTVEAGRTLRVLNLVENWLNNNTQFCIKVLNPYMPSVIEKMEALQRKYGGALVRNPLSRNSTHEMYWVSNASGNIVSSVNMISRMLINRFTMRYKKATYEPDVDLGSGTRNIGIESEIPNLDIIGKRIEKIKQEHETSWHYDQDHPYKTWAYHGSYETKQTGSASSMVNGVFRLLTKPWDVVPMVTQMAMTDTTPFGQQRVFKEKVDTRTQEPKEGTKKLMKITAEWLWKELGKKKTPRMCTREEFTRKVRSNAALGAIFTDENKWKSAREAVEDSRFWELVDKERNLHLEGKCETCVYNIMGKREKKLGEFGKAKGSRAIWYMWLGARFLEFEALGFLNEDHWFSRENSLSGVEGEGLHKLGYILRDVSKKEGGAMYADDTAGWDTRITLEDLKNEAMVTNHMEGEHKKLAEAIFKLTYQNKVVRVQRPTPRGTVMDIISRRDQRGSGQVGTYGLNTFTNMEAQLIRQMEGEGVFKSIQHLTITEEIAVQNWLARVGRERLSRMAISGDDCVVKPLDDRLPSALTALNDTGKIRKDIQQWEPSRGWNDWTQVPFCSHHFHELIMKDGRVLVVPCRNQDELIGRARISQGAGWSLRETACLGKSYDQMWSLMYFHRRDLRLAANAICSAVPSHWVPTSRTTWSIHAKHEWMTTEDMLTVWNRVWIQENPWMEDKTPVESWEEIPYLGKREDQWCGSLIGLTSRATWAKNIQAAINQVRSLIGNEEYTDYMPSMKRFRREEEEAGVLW

Albumin = Albumin (Bos taurus, UniProt P02769); experiment: Counterscreen for inhibitors of T-cell receptor (TCR)-CD3 interaction: Fluorescence-based biochemical high throughput dose response assay to identify inhibitors of T-cell receptor (TCR)-CD3 interaction using a TAMRA-labeled BSA probe.; type: functional
Chain of Albumin (P02769 whole entry): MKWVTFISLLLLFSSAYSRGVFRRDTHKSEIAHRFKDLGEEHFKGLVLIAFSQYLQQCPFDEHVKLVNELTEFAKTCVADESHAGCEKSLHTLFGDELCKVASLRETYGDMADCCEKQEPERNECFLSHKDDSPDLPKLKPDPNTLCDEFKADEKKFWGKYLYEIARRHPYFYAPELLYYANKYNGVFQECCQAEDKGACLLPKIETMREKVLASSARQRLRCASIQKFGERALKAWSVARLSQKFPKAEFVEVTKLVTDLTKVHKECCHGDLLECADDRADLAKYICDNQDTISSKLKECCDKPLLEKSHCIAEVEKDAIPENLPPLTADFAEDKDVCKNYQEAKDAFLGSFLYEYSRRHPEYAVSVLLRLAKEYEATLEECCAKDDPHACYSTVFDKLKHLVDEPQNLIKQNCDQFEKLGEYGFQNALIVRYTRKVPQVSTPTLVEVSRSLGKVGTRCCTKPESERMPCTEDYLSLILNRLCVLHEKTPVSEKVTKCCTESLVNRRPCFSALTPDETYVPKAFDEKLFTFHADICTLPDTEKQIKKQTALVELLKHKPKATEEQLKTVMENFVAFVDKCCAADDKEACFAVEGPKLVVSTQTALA

Bcl-2-like protein 1 = Bcl-2-like protein 1 (Homo sapiens, UniProt Q07817); experiment: blockers of BCLXL peptide binding – biochemical, fluorescence polarization, 1536-well, selectivity assay for MCL1 inhibitor project, dose response (AID 2218)
Chain of Bcl-2-like protein 1 (Q07817 whole entry): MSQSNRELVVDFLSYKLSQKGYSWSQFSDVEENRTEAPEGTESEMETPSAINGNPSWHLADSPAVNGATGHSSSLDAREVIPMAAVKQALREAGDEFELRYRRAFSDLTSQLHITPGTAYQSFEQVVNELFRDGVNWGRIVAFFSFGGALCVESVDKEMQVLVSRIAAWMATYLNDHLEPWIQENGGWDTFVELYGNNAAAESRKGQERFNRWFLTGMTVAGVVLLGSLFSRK

Estrogen receptor beta [4] = molecular target: T2, Estrogen receptor beta (Homo sapiens, UniProt Q92731); experiment: blockers of SRC-3 recruitment to ERβ – biochemical, ELISA, streptavidin-HRP readout, orthogonal assay, confirmation (AID 1060)
T2 sequence (Q92731 whole entry): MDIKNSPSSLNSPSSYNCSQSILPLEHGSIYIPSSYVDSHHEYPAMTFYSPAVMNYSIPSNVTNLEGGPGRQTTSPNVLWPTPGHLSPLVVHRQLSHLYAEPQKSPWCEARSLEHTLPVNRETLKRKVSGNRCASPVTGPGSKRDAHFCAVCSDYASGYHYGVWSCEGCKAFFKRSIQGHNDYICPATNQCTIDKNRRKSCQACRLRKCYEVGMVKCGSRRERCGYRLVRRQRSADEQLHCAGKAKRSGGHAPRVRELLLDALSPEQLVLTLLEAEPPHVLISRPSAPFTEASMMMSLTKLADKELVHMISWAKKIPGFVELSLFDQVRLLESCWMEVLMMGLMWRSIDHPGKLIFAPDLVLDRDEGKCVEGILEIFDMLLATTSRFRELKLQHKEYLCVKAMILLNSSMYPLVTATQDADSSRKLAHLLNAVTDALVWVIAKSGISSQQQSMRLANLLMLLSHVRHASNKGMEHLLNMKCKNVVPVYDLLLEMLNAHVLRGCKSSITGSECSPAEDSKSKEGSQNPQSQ

[5] = molecular target: T3, Alkaline phosphatase, tissue-nonspecific isozyme (Homo sapiens, UniProt P05186); experiment: TNAP enzyme inhibition by screening hits, dose response, selectivity assay for mouse IAP inhibitor project, biochemical, human TNAP, uHTS hits (AID 488906); type: functional
T3 sequence (P05186 whole entry): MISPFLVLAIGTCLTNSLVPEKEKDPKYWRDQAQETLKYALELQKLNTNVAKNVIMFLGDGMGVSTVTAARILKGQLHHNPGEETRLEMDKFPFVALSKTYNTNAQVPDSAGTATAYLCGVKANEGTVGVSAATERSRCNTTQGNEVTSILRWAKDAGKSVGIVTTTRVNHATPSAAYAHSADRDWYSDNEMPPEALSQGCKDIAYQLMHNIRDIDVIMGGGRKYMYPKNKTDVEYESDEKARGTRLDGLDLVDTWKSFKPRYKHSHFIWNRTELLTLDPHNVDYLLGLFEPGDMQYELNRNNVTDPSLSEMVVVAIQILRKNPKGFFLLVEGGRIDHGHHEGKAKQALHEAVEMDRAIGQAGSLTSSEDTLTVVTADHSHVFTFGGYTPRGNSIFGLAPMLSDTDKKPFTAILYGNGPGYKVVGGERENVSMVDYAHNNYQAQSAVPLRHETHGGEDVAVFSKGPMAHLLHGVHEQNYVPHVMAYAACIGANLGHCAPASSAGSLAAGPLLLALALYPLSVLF

Estrogen receptor = molecular target: T4, Estrogen receptor (Homo sapiens, UniProt P03372);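 note: potency for inhibiting coactivator peptide recruitment to the receptor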
T4 sequence (P03372 whole entry): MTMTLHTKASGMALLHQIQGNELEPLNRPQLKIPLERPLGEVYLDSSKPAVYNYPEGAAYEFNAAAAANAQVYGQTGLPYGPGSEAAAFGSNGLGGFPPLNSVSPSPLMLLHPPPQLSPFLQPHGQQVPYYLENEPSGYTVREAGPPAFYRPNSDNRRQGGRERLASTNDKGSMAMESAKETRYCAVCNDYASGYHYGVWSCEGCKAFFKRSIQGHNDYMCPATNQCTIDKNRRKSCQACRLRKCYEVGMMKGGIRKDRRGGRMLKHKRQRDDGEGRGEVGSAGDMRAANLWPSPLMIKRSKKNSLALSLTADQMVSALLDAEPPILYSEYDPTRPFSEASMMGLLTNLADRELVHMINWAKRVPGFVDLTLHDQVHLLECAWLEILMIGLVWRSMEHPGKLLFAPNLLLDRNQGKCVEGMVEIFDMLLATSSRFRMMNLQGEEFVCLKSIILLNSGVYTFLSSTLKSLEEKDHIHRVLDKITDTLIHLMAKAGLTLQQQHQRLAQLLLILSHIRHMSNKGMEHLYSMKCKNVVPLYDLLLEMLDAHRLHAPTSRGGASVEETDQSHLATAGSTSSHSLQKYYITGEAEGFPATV

Estrogen receptor beta [6] = molecular target: T2, Estrogen receptor beta
[7] = molecular target: Intestinal-type alkaline phosphatase (Mus musculus, UniProt P24822); experiment: PubChem AID 488785; type: functional
Chain of Intestinal-type alkaline phosphatase (Mus musculus, UniProt P24822) (P24822 whole entry): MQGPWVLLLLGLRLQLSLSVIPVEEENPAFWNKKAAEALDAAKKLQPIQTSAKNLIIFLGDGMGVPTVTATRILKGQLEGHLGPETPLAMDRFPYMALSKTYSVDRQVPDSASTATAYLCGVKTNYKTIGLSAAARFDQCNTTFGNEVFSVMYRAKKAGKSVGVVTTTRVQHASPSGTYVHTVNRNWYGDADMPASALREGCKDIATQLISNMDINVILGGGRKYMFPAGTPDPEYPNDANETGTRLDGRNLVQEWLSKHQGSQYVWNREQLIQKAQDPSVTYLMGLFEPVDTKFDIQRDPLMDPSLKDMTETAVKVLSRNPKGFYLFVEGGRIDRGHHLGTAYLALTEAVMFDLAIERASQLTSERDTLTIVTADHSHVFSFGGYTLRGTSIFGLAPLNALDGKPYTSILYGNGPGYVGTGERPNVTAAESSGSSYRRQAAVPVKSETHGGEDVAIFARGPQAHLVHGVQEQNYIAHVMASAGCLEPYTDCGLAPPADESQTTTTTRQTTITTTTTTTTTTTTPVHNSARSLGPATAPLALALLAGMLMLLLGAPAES

[8] = molecular target: Intestinal-type alkaline phosphatase (Homo sapiens, UniProt P09923); experiment: inhibition of human intestinal alkaline phosphatase – biochemical, dose response (AID 488876); type: functional
Chain of Intestinal-type alkaline phosphatase (Homo sapiens, UniProt P09923) (P09923 whole entry): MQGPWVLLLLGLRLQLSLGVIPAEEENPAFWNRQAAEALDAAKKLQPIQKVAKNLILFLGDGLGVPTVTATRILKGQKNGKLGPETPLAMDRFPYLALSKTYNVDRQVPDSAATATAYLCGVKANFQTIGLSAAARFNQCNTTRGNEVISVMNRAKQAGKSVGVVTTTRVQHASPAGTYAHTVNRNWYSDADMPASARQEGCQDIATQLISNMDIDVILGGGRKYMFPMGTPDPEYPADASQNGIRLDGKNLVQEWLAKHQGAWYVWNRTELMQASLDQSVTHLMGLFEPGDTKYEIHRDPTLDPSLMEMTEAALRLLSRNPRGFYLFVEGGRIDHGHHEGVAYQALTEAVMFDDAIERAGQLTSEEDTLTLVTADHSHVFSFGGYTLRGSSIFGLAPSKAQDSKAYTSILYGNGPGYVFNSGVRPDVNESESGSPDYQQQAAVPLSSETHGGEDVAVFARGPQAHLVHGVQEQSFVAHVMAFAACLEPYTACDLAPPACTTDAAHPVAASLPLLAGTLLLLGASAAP

Leucine aminopeptidase = Leucine aminopeptidase (Plasmodium falciparum 3D7, UniProt Q8IL11); experiment: P. falciparum M17LAP inhibitors, primary screen, biochemical, fluorogenic H-Leu-NHMec substrate, 1536-well (AID 1619); type: functional
Chain of Leucine aminopeptidase (Q8IL11 whole entry, the tested form may be a part): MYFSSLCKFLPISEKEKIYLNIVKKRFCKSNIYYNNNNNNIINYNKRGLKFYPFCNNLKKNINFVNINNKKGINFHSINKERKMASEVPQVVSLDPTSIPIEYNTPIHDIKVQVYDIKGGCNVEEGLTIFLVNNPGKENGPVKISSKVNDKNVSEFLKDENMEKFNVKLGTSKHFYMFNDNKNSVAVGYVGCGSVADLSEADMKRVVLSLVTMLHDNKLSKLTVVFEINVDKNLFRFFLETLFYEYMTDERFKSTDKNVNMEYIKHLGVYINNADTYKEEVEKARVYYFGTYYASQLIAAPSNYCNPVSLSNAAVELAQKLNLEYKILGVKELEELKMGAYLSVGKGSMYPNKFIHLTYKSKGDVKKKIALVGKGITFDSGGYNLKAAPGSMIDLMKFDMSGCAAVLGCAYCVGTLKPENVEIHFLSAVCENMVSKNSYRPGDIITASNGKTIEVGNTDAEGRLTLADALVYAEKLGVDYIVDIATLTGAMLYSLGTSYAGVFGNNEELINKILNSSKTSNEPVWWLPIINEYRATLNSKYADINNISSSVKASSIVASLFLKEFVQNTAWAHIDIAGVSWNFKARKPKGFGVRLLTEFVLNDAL

[9] = molecular target: T5, Carboxy-terminal domain RNA polymerase II polypeptide A small phosphatase 1 (Homo sapiens, UniProt Q9GZU7); experiment: CTDSP1 inhibitors, concentration-response, biochemical, absorbance readout, ultra-high-throughput screen actives (AID 540297); type: functional
T5 sequence (Q9GZU7 whole entry): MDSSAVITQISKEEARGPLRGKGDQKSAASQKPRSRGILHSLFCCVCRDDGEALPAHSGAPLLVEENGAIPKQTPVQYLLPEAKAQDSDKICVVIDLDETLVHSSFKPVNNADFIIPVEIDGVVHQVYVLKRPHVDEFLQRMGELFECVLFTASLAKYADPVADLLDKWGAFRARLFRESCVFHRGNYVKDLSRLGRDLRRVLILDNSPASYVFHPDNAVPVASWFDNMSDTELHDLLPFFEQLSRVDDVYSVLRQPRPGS

[10] = molecular target: T6, Ubiquitin-conjugating enzyme E2 N (Homo sapiens, UniProt P61088); type: functional
T6 sequence (P61088 whole entry): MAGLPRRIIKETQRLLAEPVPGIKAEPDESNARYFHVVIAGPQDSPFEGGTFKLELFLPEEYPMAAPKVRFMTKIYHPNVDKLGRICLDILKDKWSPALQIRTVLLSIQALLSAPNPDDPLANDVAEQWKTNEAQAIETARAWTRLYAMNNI

Bcl-2-related protein A1 = molecular target: T7, Bcl-2-related protein A1 (Mus musculus, UniProt Q07440); type: functional;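 note: confirmatory dose–response counterscreen on Bfl-1, used to check hits from a UBC13 polyubiquitin inhibitor campaign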
T7 sequence (Q07440 whole entry): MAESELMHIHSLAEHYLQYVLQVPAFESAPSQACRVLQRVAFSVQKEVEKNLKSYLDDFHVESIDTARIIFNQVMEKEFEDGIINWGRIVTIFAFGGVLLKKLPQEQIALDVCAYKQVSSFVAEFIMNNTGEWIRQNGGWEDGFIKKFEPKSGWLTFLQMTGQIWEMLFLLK

[11] = molecular target: T8, Dual specificity protein phosphatase 6 (Rattus norvegicus, UniProt Q64346); experiment: inhibition of rat DUSP6 enzyme activity – biochemical, in vitro, primary screen (AID 425)
T8 sequence (Q64346 whole entry): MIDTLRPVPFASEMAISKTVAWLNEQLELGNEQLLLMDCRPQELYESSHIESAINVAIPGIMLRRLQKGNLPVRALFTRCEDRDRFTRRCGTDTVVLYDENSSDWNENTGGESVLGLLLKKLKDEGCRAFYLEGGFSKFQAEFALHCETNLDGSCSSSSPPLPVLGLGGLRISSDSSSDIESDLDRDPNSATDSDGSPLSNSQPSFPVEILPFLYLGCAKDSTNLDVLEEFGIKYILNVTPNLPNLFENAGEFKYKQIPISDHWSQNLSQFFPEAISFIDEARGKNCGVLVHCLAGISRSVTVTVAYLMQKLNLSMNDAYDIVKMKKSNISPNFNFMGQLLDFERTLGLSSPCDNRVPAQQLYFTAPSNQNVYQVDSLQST

[12] = molecular target: T9, Histone-lysine N-methyltransferase NSD2 (Homo sapiens, UniProt O96028); type: biochemical
T9 sequence (O96028 whole entry): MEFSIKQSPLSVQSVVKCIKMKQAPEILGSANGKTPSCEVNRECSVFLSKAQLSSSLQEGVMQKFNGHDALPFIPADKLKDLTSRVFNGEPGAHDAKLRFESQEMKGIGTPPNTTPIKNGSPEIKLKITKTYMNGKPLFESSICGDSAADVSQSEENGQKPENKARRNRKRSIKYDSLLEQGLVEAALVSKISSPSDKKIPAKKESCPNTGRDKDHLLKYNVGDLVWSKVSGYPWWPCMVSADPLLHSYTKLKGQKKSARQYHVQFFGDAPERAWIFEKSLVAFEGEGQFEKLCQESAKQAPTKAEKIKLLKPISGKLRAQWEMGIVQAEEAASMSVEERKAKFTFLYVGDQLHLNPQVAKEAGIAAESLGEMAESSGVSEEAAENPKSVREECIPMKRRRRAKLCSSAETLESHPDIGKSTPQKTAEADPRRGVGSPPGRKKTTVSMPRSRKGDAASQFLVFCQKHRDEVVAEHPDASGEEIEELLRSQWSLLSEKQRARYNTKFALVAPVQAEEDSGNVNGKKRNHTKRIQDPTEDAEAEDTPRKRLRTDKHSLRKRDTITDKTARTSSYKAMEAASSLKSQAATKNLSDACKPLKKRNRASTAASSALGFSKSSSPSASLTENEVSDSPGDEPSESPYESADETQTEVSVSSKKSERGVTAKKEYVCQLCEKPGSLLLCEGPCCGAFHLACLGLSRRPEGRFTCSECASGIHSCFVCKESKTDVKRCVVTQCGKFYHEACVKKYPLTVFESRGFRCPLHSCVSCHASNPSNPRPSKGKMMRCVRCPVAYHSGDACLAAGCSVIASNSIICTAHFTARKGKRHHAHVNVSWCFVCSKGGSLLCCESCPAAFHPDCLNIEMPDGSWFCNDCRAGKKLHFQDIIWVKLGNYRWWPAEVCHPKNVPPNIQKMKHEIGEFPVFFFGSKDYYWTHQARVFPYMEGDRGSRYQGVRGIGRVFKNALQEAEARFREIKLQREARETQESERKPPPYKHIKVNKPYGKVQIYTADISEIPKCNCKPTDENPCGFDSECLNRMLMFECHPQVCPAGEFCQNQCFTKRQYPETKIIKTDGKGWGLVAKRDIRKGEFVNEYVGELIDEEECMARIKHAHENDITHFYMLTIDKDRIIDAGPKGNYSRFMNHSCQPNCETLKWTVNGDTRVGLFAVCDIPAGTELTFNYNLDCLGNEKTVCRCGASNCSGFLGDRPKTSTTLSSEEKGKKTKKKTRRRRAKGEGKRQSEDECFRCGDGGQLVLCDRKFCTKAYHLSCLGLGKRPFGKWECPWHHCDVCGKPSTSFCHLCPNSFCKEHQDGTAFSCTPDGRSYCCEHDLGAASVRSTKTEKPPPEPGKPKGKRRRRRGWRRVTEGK

[13] = molecular target: T6, Ubiquitin-conjugating enzyme E2 N; type: functional; remark: listed apart in the source
Large T antigen = Large T antigen (Simian virus 40, UniProt P03070); type: functional, Betapolyomavirus macacae;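 note: Confirmatory-stage PubChem screen for compounds that inhibit SV40 T antigen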
Chain of Large T antigen (P03070 whole entry): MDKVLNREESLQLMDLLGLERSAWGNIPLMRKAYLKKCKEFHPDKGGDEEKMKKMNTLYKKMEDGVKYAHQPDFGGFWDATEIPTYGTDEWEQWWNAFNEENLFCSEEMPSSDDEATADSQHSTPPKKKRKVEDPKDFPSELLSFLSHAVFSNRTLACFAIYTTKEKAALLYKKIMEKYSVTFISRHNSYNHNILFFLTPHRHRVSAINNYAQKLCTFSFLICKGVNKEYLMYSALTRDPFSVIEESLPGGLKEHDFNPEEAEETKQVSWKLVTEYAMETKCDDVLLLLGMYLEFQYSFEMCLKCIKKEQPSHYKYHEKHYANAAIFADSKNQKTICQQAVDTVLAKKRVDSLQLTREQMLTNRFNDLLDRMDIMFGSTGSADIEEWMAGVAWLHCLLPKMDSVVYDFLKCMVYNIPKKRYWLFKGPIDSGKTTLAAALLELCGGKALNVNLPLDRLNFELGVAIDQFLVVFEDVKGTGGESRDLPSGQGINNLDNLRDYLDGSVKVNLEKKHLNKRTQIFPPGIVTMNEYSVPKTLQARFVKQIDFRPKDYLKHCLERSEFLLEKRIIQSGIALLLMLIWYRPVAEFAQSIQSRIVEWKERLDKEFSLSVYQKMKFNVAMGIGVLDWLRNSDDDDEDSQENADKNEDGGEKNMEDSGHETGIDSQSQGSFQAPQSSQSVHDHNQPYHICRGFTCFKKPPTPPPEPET

- IC50 (Leucine aminopeptidase): 4.71 µM (active)
SMILES: CCCCc1ccc(C(=O)NC(C(=O)O)C(C)C)cc1 (stereo unspecified)

- IC50 (Estrogen receptor beta [4]): 0.127 µM (not active)
- IC50 [9]: 3.87 µM (active)
- IC50 (Estrogen receptor): 9.49 µM (active)
- IC50 (Estrogen receptor beta [6]): 5.52 µM (active)
SMILES: CC1CCN(S(=O)(=O)c2ccc(NC(=O)Cc3cccs3)cc2)CC1

The next lines start with the compound.

SMILES: O=C(CCc1ccc(S(=O)(=O)N2CCOCC2)cc1)N/N=C/c1ccc(O)c(O)c1O
- IC50 [1]: 48.7 µM (inactive)
- IC50 [2]: 16.4 µM (active)
- IC50 [3]: 2.33 µM (active)
- IC50 (Genome polyprotein): 51.3 µM (active)
- IC50 (Albumin): > 94.1 µM (inactive)
- IC50 (Bcl-2-like protein 1): > 109 µM (not active)

SMILES: CN(c1ccccc1C(=O)O)S(=O)(=O)c1ccc2c3c(cccc13)C(=O)N2
- IC50 (Estrogen receptor beta [4]): 6.16 µM (not active)
- IC50 [5]: > 100 µM (inactive)
- IC50 (Estrogen receptor): 18.7 µM (active)
- IC50 (Estrogen receptor beta [6]): 3.85 µM (active)
- IC50 [7]: 11.3 µM (active)
- IC50 [8]: > 100 µM (inactive)

SMILES: c1coc(-c2nc(-c3ccco3)c(-c3ccco3)nc2-c2ccco2)c1
- IC50 (Estrogen receptor beta [4]): > 50 µM (not active)
- IC50 [10]: 8.49 µM (active)
- IC50 (Bcl-2-related protein A1): 0.36 µM (active)
- IC50 [11]: > 10 µM (not active)
- AC50 [12]: > 20 µM (inactive)
- IC50 [13]: 3.79 µM (active)
- IC50 [3]: > 1.34 µM (active)
- IC50 (Large T antigen): 76.4 µM (active)
- IC50 (Bcl-2-like protein 1): > 109 µM (not active)
